{
  "source": "BindingDB's records for doi:10.1016/s0960-894x(03)00205-1",
  "about": "(Abbott Laboratories, 2003)",
  "data": [
    {"test": "Potassium channel opening activity in vitro using LtK cells transfected with Kir6.2/SUR2B exon 17", "units": {"EC50": "nM"}, "values": [
      {"compound": "O=C(Nc1c(C(O)(C(F)(F)F)C(F)(F)F)ccc2ccccc12)c1cccc([N+](=O)[O-])c1", "note": "[3-Nitro-N-[2-(2,2,2-trifluoro-1-hydroxy-1-trifluoromethyl-ethyl)-naphthalen-1-yl]-benzamide]", "EC50": 117},
      {"compound": "CC(C)=CC(=O)Nc1c(C(O)(C(F)(F)F)C(F)(F)F)ccc2ccccc12", "note": "[3-Methyl-but-2-enoic acid [2-(2,2,2-trifluoro-1-hydroxy-1-trifluoromethyl-ethyl)-naphthalen-1-yl]-amide]", "EC50": 46},
      {"compound": "O=C(Nc1c(C(O)(C(F)(F)F)C(F)(F)F)ccc2ccccc12)c1cccc(Cl)c1Cl", "note": "[2,3-Dichloro-N-[2-(2,2,2-trifluoro-1-hydroxy-1-trifluoromethyl-ethyl)-naphthalen-1-yl]-benzamide]", "EC50": "> 10000"},
      {"compound": "O=C(Nc1c(C(O)(C(F)(F)F)C(F)(F)F)ccc2ccccc12)c1ccccc1Cl", "note": "[2-Chloro-N-[2-(2,2,2-trifluoro-1-hydroxy-1-trifluoromethyl-ethyl)-naphthalen-1-yl]-benzamide]", "EC50": 2040},
      {"compound": "O=C(Nc1c(C(O)(C(F)(F)F)C(F)(F)F)ccc2ccccc12)c1ccc(Br)cc1", "note": "[4-Bromo-N-[2-(2,2,2-trifluoro-1-hydroxy-1-trifluoromethyl-ethyl)-naphthalen-1-yl]-benzamide]", "EC50": 47},
      {"compound": "CCC(=O)Nc1c(C(O)(C(F)(F)F)C(F)(F)F)ccc2ccccc12", "note": "[N-[2-(2,2,2-Trifluoro-1-hydroxy-1-trifluoromethyl-ethyl)-naphthalen-1-yl]-propionamide]", "EC50": 15},
      {"compound": "O=C(Nc1c(C(O)(C(F)(F)F)C(F)(F)F)ccc2ccccc12)C1CC1", "note": "[Cyclopropanecarboxylic acid [2-(2,2,2-trifluoro-1-hydroxy-1-trifluoromethyl-ethyl)-naphthalen-1-yl]-amide]", "EC50": 751},
      {"compound": "O=C(Nc1c(C(O)(C(F)(F)F)C(F)(F)F)ccc2ccccc12)c1cccc(Br)c1", "note": "[3-Bromo-N-[2-(2,2,2-trifluoro-1-hydroxy-1-trifluoromethyl-ethyl)-naphthalen-1-yl]-benzamide]", "EC50": 80},
      {"compound": "O=C(Nc1c(C(O)(C(F)(F)F)C(F)(F)F)ccc2ccccc12)c1cccc(C(F)(F)F)c1", "note": "[N-[2-(2,2,2-Trifluoro-1-hydroxy-1-trifluoromethyl-ethyl)-naphthalen-1-yl]-3-trifluoromethyl-benzamide]", "EC50": 84},
      {"compound": "O=C(Nc1c(C(O)(C(F)(F)F)C(F)(F)F)ccc2ccccc12)c1ccc(OC(F)(F)F)cc1", "note": "[N-[2-(2,2,2-Trifluoro-1-hydroxy-1-trifluoromethyl-ethyl)-naphthalen-1-yl]-4-trifluoromethoxy-benzamide]", "EC50": "> 10000"}
    ]}
  ]
}
